{"source": "patent US8088890B2", "about": "“Peptides and peptidomimetic compounds, the manufacturing thereof as well as their use for preparing a therapeutically and/or preventively active pharmaceutical composition” (Fibrex Medical Research & Development GmbH, priority 2008, dated 2012)", "test_system": "RhoA", "experiment": "thrombin induced RhoA activation in human umbilical vein endothelial cell (HUVEC) culture (Rho pull-down, Western blot)", "format": "cell-based", "conditions": "5 U/ml thrombin alone, 5 min", "method": "The biological effect of the compounds was established in a model thrombin induced RhoA activation in human umbilical vein endothelial cell (HUVEC) culture.\nHUVEC are grown to confluence under standard conditions. Before induction of Rho activity HUVEC were starved for 4 h by using IMDM (Gibco) without growth factor and serum supplements. After the starvation period 5 U/ml Thrombin (Calbiochem) or 5 U thrombin plus 50 μg/ml of test compound are added to the starvation medium for 1, 5 and 10 min. Active RhoA was isolated using Rho Assay Reagent from Upstate according to manufactures instructions. Isolates were separated on a 15% polyacrylamide gel and blotted on Nitrocellulose-Membrane (Bio-Rad). RhoA was detected by using Anti-Rho (-A, -B, -C), clone55 from Upstate (1:500).", "data": [{"substance": "thrombin", "values": [{"measurement": "Relative RhoA stimulation compared to unstimulated control", "result": 6.2}]}]}
